We go through one molecule from paper PMC3454376, “Salidroside Improves Behavioral and Histological Outcomes and Reduces Apoptosis via PI3K/Akt Signaling after Experimental Traumatic Brain Injury” (PLoS ONE, 2012).

For one assay, the system named is p-FOXO1. As to the kind of experiment: Western blot, injured cortex. The format is in vivo, mice. How it is done:
(§1) Mice were anesthetized and positioned in a stereotaxic frame. LY294002 (200 nM in 0.5 µL of saline) or equal amount of physiological saline was intracerebroventricularly (icv) injected at 30 min before CCI as previously described. A 1 mm cranial burr hole was drilled into the skull. A 30-gauge needle on a Hamilton syringe was implanted into the lateral ventricle using stereotactic coordinates: 1.5 mm posterior to bregma and 1.0 mm right lateral to the midline, 2 mm in depth. LY294002 or saline was infused into the brain at a rate of 0.05 µL/min over 10 min with an infusion pump (KDS 310, KD Scientific Inc., Holliston, MA, USA), and the needle was left in place for an additional 20 min to prevent reflux. After the needle was removed, CCI procedure was conducted immediately. Sham-operated mice were infused icv with saline, but were not subjected to CCI.
(§2) Three sets of experiments were performed. The first set was to investigate the protective effects of salidroside. All animals were randomized into 1 of 3 groups (sham injury, CCI + vehicle, CCI + SALD 20). Surgery/injury, behavioral testing, and tissue analyses were performed by different individuals. Behavioral testing and tissue analyses were performed by individuals blinded to the treatment group. Salidroside (Cayman Chemical, Ann Arbor, MI, USA) dissolved in normal saline (0.25 mL) or a corresponding volume of vehicle (saline) was administered intraperitoneally 10 min following injury. Testing after injury was completed as follows: 1) behavioral testing at days 1, 4, 7, 14, 21, and 28 (n = 8–10 mice/group); 2) cresyl violet staining at day 28 (n = 9 mice/group); 3) histology, determination of brain water content, and western blot analysis at day 1 or 3 (n = 5–6 mice/group). To determine the optimal dose of salidroside, a pilot study was performed using 2 different doses (20 and 50 mg/kg) administered 10 min after injury, and neurological deficits and tissue damage were evaluated as the main outcomes. […] The second set of experiment was to assess the effect of the inhibition of PI3K/Akt with the specific PI3K inhibitor, LY294002 (Cell Signaling Technology, Danvers, MA, USA), on salidroside effects. Animals were randomized into 4 groups. Mice received either: 1) icv pretreatment of LY294002 followed by SALD 20 after CCI (S20Y group); or 2) icv pretreatment of saline (vehicle control) followed by SALD 20 after CCI (S20V group). 3) Mice were infused icv with saline and were subjected to sham injury. 4) Mice were infused icv with LY294002 and were subjected to sham injury. Testing after injury was completed as follows: 1) cresyl violet staining at day 28 (n = 6 mice/group); 2) western blot analysis at day 1 (n = 6 mice/group). The third set of experiment was performed to examine the neuroprotective time window afforded by salidroside. Mice received intraperitoneal SALD 20 or vehicle (saline) at 3 or 6 h following CCI and were sacrificed 1 day later for FJB staining and western blot analysis (n = 6 mice/group).
(§3) Brains of injured or sham animals were collected 1 day and 3 days post CCI or sham surgery, and a 4 mm coronal section from the injured area over the parietal cortex and ipsilateral hippocampus were collected. The protein samples were obtained from tissue homogenates in 300 µL of ice-cold reagent (T-PER reagent; Pierce Biotechnology, Rockford, IL, USA) with a complete mini protease inhibitor cocktail (Roche Molecular Biochemicals) centrifuged at 14000g for 30 min. Protein concentration was determined by Bradford reagent spectrophotometrically at A595. Equal amounts of protein samples were denatured in gel-loading buffer at 100°C for 5 min, and then loaded onto sodium dodecyl sulfate-polyacrylamide gels to be separated. Separated proteins were transferred to Immobilon-P membranes (Millipore, Billerica, MA, USA), blocked with the use of 5% milk in PBST and probed with primary antibodies. […]
(In general: Immunoblotting shows a protein as a band on a membrane.)

In a further assay the test system is p-Bad. Put plainly: Western blot, injured cortex. It is filed as in vivo, mice. How it is done:
as §1, §2, §3

For the next assay, the system named is p-Akt Ser473. As to the kind of experiment: Western blot, injured cortex. The format is in vivo, mice. As to the method:
as §1, §2, §3

In a further assay the test system is p-Akt Thr308. As to the kind of experiment: Western blot, injured cortex. It is filed as in vivo, mice. The settings on record: icv LY294002 30 min before CCI + SALD 20 mg/kg ip (S20LY); day 1; P<0.05. As to the method: as §1, §2, §3
Assay [1] deals with mice subjected to controlled cortical impact injury. Put plainly: Residual cerebral tissue ratio, cresyl violet staining. The settings on record: icv LY294002 30 min before CCI, then SALD 20 mg/kg ip (S20LY group); day 28; P<0.05 vs S20S. It is filed as in vivo. How it is done:
All animal procedures were approved by the Animal Research Committee at Cheng Hsin General Hospital (Animal permit number CHIACUC 101–08), and all procedures complied with the Guide for the Care and Use of Laboratory Animals published by the US National Institutes of Health (NIH Publication No. 85–23, revised 1996). Animals were housed under a 12-h light/dark cycle and at constant temperature (21–25°C) and humidity (45–50%). They were allowed free access to pellet chow and water. TBI in mice was induced by a CCI injury model as previously described. Briefly, 8-week-old male C57BL/6 mice (weighing 22–25 g) were anesthetized through the use of intraperitoneal injection of sodium pentobarbital (65 mg/kg; Rhone Merieux, Harlow, UK) and placed in a stereotaxic frame. A 5 mm craniotomy was performed over the right parietal cortex, centered on the coronal suture and 0.1 mm lateral to the sagittal suture, and injury to dura was avoided. Injury was induced using a pneumatic piston with a rounded metal tip (2.5 mm diameter) that was angled 22.5° to the vertical so that the tip was perpendicular with the brain surface at the center of the craniotomy. The impact, with a velocity of […] and a deformation depth of 2 mm below the dura, was applied. The bone flap was immediately replaced and sealed, and the scalp was sutured. Body temperature was monitored throughout the surgery by a rectal probe; temperature was maintained at 37.0±0.5°C using a heated pad. Mice were placed in a heated cage to maintain body temperature, while recovering from anesthesia. Sham-operated mice underwent the same procedure as injured mice, but without CCI.
as §1
Three sets of experiments were performed. […] To determine the optimal dose of salidroside, a pilot study was performed using 2 different doses (20 and 50 mg/kg) administered 10 min after injury, and neurological deficits and tissue damage were evaluated as the main outcomes. […]

Setting [2] is: icv LY294002 30 min before CCI + SALD 20 mg/kg ip, day 1, P>0.05.

For the molecule `O=c1cc(N2CCOCC2)oc2c(-c3ccccc3)cccc12` [LY294002, reference compound], in the assay with p-FOXO1 (icv LY294002 30 min before CCI + SALD 20 mg/kg ip (S20LY), day 1, P<0.05), the “p-FOXO1 level, % of the S20V level” value stood at 41.6%. In addition, in the assay with p-FOXO1 (icv LY294002, sham injury), the “FOXO1 phosphorylation in sham-operated mice” value is recorded as “did not affect”. The “p-Bad level, S20LY versus S20V group” value with p-Bad (setting [2]) is “similar”. In the assay on p-Bad (icv LY294002, sham injury), the “Bad phosphorylation in sham-operated mice” value is “did not affect”. Also, the “p-Akt Ser473 level, S20LY versus S20V group” value in the assay on p-Akt Ser473 (setting [2]) is given as “similar”. Besides, the “Akt phosphorylation (Ser473 and Thr308) in sham-operated mice” value in the assay on p-Akt Ser473 (icv LY294002, sham injury) is reported as “did not affect”. In addition, the “p-Akt Thr308 level, % of the S20V level” value with p-Akt Thr308 is given as 58.1%. For the same molecule, in assay [1], the “residual cerebral tissue ratio” value is reported as 71.0±6.3%.
